Where “and” joins values, the source holds several entries; their conditions need not be identical. Identical values can stand only once.
What was measured:
patients with PH-HFpEF = test: Six-minute walk test (6MWT/6MWD), I.V. to oral levosimendan transition study (TNX-LVO-05 open label extension of HELP); format: in vivo, human
Description: The initial HELP Study is described in PCT International Application Publication No. WO 2021/126884 and Burkhoff, et al. (2021) “Levosimendan improves hemodynamics and exercise tolerance in PH-HFpEF: results of the randomized placebo-controlled HELP trial,” the entire contents of each of which are incorporated by reference. […] Among the goals of the extension study was to determine the dose of oral levosimendan that could maintain the efficacy of the weekly I.V. infusions of levosimendan.
Once that dose is determined, the study is identical with respect to the protocol. Since the I.V. formulation is weight based, and bypasses issues of bioavailability that may be affected by drug absorption, a dose escalation strategy is being adopted, guided by the individual patient response and any adverse events that may occur. Thus, the measurement of a six-minute walk test and patient questionnaire before and after the transition was to ensure that the patient continues to benefit. In addition, the monitoring of the patients' blood pressure and heart rate each day was to ensure that the oral dose remains safe.
The following considerations justified amending the TNX-LVO-05 study protocol: • 1. The amended TNX-LVO-05 protocol included the same patients enrolled in the original study. This was not a new study of the patients currently enrolled. This was open label, with no blinding of patients or physicians, and no control group. • 2. The scope and purpose of the study was unchanged, with the exception that it offered the further extension of treatment allowed by the transition to oral therapy (See item #4). • 3. The amendment clearly delineated a stepwise and thoughtful titration of patients from their intravenous to oral levosimendan to ensure the safe and effective transition of their levosimendan regimen. • a. Patients were started on 1 mg daily, representing a dose generally less than half their total weekly weight-based dose regimen. • b. Patients were titrated based on tolerance to the daily levosimendan paying attention to their symptoms of PH-HFpEF, and special attention to specific adverse events of interest, heart rate and blood pressure. A daily diary captured patient vitals and symptoms to aid their physician in titrating patients at two-week intervals. • c. Patient response also was evaluated by clinical measures to provide the physician with additional information on the patient's response. • d. While most patients were expected to receive 2-3 mg daily at the conclusion of the transition study, the dose escalation strategy was included to allow all patients to realize the same benefit as they did from the I.V. formulation. • e. To document the sustained efficacy of the oral formulation in these patients, patients had to undergo a six-minute walk test and patient questionnaire prior to and at the end of the transition study. • 4. The transition to oral levosimendan allowed for extension of the study from its initial two years to an additional three years. This offers these PH-HFpEF patients, with no other treatments available, to continue on a drug that they have responded to. • 5. The amendment required patients to sign a revised informed consent to ensure patients are completely informed concerning the transition amendment. Patients that preferred to continue with their weekly 24-hour I.V. regimen were allowed to continue through the initial two-year period of the study and then will be withdrawn.
Methods: Patients with PH-HFpEF who were in the open label extension study of the HELP Trial for more than 18 months volunteered to enroll in this transition protocol. Patients were initiated with 1 mg/day of oral levosimendan 5-7 days after the last IV levosimendan infusion. The oral dose was increased every 2 weeks by 1 mg/day to a maximum of 4 mg/day over an 8 week period. The highest daily dose was determined by the investigator based on clinical assessments of symptoms and side effects. […]

[1] = tested on: subjects with pulmonary hypertension with heart failure and preserved ejection fraction; test: TNX-LVO-05 safety review: treatment emergent adverse events; format: in vivo, human
Description: This is the third safety review for Study Protocol No. TNX-LVO-05. This review a) summarizes treatment emergent adverse events (TEAEs), treatment emergent serious adverse events (TESAEs), discontinuations due to TEAEs, and b) provides an overall assessment of safety data.
As of 4 Nov. 2020, 36 subjects have been enrolled in this open-label study with levosimendan and 18 (−5; this number presents change versus previous Safety Review) are still active. Seven subjects (+3) withdrew due to AE, and eight (+2) subjects withdrew consent. One subject was withdrawn by investigator decision.

[2] = individual patients transitioned from weekly I.V. to oral levosimendan

C[C@@H]1CC(=O)NN=C1c1ccc(NN=C(C#N)C#N)cc1 [levosimendan]
6MW Change (BL vs Week 6 only) (patients with PH-HFpEF; [2]): −137 and 78 and −27 and 118 and −10 and −4 and 5 and −9 and −8 and 9 and −17 and 40 and 30 (2×) and 15 and −1
6MW Change (Baseline vs Week 6/8) (patients with PH-HFpEF; [2]): −15 and 78 and −27 and −10 and −31 and −4 and 24 and −23 and −112 and 9 and −17 and 30 (3×) and −1
6MWD Change from baseline to Week 6 - Oral, Maximum (patients with PH-HFpEF; n=16): 118
6MWD Change from baseline to Week 6 - Oral, Median (patients with PH-HFpEF; n=16): 2.0
6MWD Change from baseline to Week 6 - Oral, Minimum (patients with PH-HFpEF; n=16): −137
6MWD Week 6 - Oral, Maximum (patients with PH-HFpEF; n=16, oral levosimendan): 550 m
6MWD Week 6 - Oral, Mean (patients with PH-HFpEF; n=16, oral levosimendan): 302.0
6MWD Week 6 - Oral, Median (patients with PH-HFpEF; n=16, oral levosimendan): 292.0
6MWD Week 6 - Oral, Minimum (patients with PH-HFpEF; n=16, oral levosimendan): 91
mean change in 6MWD (patients with PH-HFpEF; n=17, baseline to final study visit, oral levosimendan): 13.1 (SD±39.5) meters
improvement in six minute walk distance (patients with PH-HFpEF; oral levosimendan compared to weekly I.V. infusion): 32%
TEAE arthralgia ([1]; of 36 enrolled): 3 subjects
TEAE asthenia ([1]; of 36 enrolled): 3 subjects
TEAE back pain ([1]; of 36 enrolled): 3 subjects
TEAE cardiac failure ([1]; of 36 enrolled): 6 subjects
TEAE dermatitis ([1]; of 36 enrolled): 3 subjects
TEAE device infusion issues ([1]; of 36 enrolled): 3 subjects
TEAE dizziness ([1]; of 36 enrolled): 8 subjects
TEAE dyspnea ([1]; of 36 enrolled): 8 subjects
TEAE fluid overload ([1]; of 36 enrolled): 3 subjects
TEAE gout ([1]; of 36 enrolled): 3 subjects
TEAE headache ([1]; of 36 enrolled): 5 subjects
TEAE hemoptysis ([1]; of 36 enrolled): 3 subjects
TEAE hypokalemia ([1]; of 36 enrolled): 7 subjects
TEAE palpitations ([1]; of 36 enrolled): 4 subjects
TEAE pneumonia ([1]; of 36 enrolled): 3 subjects
TEAE upper respiratory tract infection ([1]; of 36 enrolled): 3 subjects
TEAE urinary tract infection ([1]; of 36 enrolled): 3 subjects
TEAE ventricular extrasystoles ([1]; of 36 enrolled): 3 subjects
TEAE weight increased ([1]; of 36 enrolled): 3 subjects
drug-related TEAE device infusion issue ([1]; of 36 enrolled): 3 subjects
drug-related TEAE headache ([1]; of 36 enrolled): 2 subjects
drug-related TEAE palpitations ([1]; of 36 enrolled): 2 subjects
drug-related TEAE urticaria ([1]; of 36 enrolled): 2 subjects
drug-related TEAE ventricular extrasystoles ([1]; of 36 enrolled): 2 subjects
subjects permanently discontinued study drug due to a TEAE ([1]; of 36 enrolled): 5 subjects
subjects with TEAEs, SOC General disorders and administration site conditions ([1]; of 36 enrolled): 15 subjects
subjects with TEAEs, SOC Nervous system disorders ([1]; of 36 enrolled): 15 subjects
TESAE asthenia ([1]; of 36 enrolled (5.6%)): 2 subjects
TESAE cardiac failure congestive ([1]; of 36 enrolled (5.6%)): 2 subjects
TESAE pneumonia ([1]; of 36 enrolled (8.3%)): 3 subjects
TESAEs, SOC Metabolism and nutrition disorders ([1]; of 36 enrolled (8.3%)): 4 subjects
related TEAEs, SOC Nervous system disorders ([1]; of 36 enrolled (8.3%)): 3 subjects
related TEAEs, SOC Respiratory, thoracic and mediastinal disorders ([1]; of 36 enrolled (8.3%)): 3 subjects
related TEAEs, SOC Skin and subcutaneous tissue disorders ([1]; of 36 enrolled (8.3%)): 3 subjects
related TEAEs, SOC cardiac disorders ([1]; of 36 enrolled (8.3%)): 5 subjects
TESAE cardiac failure ([1]; of 36 enrolled (11.1%)): 4 subjects
related TEAEs, SOC Product issues ([1]; of 36 enrolled (11.4%)): 4 subjects
TESAEs, SOC Infections and Infestations ([1]; of 36 enrolled (22.2%)): 8 subjects
TESAEs, SOC cardiac disorders ([1]; of 36 enrolled (22.2%)): 8 subjects
subjects with TEAE severity moderate ([1]; of 36 enrolled (25.0%)): 9 subjects
subjects with TEAE severity mild ([1]; of 36 enrolled (27.8%)): 10 subjects
subjects with TEAE severity severe ([1]; of 36 enrolled (36.1%)): 13 subjects
subjects with TEAEs considered related to the study drug ([1]; of 36 enrolled (41.7%)): 15 subjects
subjects with TEAEs, SOC Cardiac disorders ([1]; of 36 enrolled (47.2%)): 17 subjects
subjects with TEAEs, SOC Infections and Infestations ([1]; of 36 enrolled (47.2%)): 17 subjects
subjects with serious TEAEs (TESAEs) ([1]; of 36 enrolled (55.6%)): 20 subjects
subjects with TEAEs ([1]; of 36 enrolled (88.9%)): 32 subjects
overall safety assessment ([1]; third safety review, as of 4 Nov. 2020): no safety trends or signals
serious TEAEs considered related ([1]; two of 36 enrolled): 5.6%
